What was measured:
PPARα [1] = molecular target: T1, PPARα (Homo sapiens, UniProt Q07869); assay: PPARα transactivation reporter gene assay in SMMC-7721 cells; assay type: cell-based
T1 sequence (Q07869 1-468): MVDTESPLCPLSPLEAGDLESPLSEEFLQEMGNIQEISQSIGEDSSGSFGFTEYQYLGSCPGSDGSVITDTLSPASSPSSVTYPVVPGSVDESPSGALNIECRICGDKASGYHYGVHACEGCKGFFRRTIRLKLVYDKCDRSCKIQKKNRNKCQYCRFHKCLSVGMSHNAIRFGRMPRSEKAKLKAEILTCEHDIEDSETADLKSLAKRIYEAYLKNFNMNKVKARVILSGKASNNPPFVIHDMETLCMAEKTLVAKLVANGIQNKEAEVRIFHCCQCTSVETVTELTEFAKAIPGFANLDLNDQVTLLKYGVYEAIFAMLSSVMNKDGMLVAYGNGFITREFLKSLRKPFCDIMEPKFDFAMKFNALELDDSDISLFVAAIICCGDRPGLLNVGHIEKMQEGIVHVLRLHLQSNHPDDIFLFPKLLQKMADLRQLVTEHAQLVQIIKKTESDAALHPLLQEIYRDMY
T1 sequence (P19793 1-462 partner): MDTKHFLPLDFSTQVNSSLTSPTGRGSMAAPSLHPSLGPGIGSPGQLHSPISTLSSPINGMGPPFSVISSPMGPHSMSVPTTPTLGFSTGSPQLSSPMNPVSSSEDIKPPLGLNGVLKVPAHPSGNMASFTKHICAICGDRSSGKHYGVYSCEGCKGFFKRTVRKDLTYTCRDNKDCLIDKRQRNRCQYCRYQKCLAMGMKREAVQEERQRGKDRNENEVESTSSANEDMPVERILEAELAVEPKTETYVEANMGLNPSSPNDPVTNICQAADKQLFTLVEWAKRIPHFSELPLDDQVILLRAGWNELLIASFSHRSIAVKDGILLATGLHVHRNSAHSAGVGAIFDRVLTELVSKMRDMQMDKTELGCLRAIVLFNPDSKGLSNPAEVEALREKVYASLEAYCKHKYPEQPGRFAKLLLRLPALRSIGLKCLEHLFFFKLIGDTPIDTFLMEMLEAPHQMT

PPARγ [2] = molecular target: T2, PPARγ (Homo sapiens, UniProt P37231); assay: PPARγ transactivation reporter gene assay in SMMC-7721 cells; assay type: cell-based
T2 construct: expressed in transfected cells; host or cells: SMMC-7721 or U2OS
T2 sequence (P37231 1-505): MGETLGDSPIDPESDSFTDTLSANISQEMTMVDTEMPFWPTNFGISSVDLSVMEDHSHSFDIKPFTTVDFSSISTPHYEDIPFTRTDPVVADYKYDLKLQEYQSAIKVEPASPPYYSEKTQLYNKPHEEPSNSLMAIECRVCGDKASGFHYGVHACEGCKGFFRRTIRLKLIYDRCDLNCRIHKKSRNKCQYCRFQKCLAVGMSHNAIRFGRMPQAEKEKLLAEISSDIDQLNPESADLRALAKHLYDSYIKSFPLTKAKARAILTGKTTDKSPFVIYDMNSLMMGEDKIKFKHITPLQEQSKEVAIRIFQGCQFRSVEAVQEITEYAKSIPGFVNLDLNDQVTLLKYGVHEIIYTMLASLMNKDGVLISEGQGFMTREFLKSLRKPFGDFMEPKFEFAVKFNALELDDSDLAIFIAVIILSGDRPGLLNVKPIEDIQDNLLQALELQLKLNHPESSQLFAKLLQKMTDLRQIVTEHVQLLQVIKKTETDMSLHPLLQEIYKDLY
T2 sequence (P19793 1-462 partner): T1 sequence (P19793 1-462 partner)

PPARδ [3] = molecular target: T3, PPARδ (Homo sapiens, UniProt Q03181); assay: PPARδ transactivation reporter gene assay in SMMC-7721 cells; assay type: cell-based
T3 construct: expressed in transfected cells; host or cells: SMMC-7721 or U2OS
T3 sequence (Q03181 1-441): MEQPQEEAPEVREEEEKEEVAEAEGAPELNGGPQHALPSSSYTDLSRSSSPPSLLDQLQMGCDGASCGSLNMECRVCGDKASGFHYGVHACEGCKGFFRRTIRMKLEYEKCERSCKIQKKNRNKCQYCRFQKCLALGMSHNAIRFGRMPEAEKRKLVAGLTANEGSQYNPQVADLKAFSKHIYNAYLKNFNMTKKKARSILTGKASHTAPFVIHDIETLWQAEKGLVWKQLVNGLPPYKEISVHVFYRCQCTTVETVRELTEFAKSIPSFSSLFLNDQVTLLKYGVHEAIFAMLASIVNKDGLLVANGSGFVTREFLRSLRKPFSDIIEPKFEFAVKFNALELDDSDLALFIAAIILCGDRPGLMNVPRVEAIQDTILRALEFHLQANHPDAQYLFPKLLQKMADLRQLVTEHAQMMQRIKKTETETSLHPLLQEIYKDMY
T3 sequence (P19793 1-462 partner): T1 sequence (P19793 1-462 partner)

PPARα [4] = molecular target: T1, PPARα; assay: PPARα transactivation reporter gene assay in U2OS cells; assay type: cell-based
PPARγ [5] = molecular target: T2, PPARγ; assay: PPARγ transactivation reporter gene assay in U2OS cells; assay type: cell-based; details: 24 h treatment, luciferase reporter, hRXR cotransfected, ia: inactive at 10 μM
PPARδ [6] = molecular target: T3, PPARδ; assay: PPARδ transactivation reporter gene assay in U2OS cells; assay type: cell-based
SMMC-7721 cells = assay: Gene expression by RT-PCR in SMMC-7721 cells; assay type: cell-based, human; details: 48 h, 10 μM rosiglitazone, 10 μM chiglitazar; for Expression of LDL receptor (LDLR): 50 μM WY14643, 5 μM 2-Bro
Excerpt: (§1) cDNAs for human retinoid X receptor (hRXR), PPARα, PPARγ, and PPARδ were obtained by reverse transcriptase polymerase chain reaction (RT-PCR) from human liver or adipose tissues. Amplified cDNAs were cloned into pcDNA3.1 expression vector (Invitrogen, Carlsbad, CA, USA). The integrity and fidelity of all constructs made were verified by DNA sequencing. Luciferase reporter plasmids, ACOX promoter for PPARγ and pHD(X3)-luc for PPARα, were kind gifts of Drs. TM McIntyre (University of Utah, USA) and RA Rachubinski (University of Alberta, Canada), respectively. PPRE-luc for PPARδ was constructed based on the previous report by insertion of the annealed oligonucleotides having four copies of the CYP4A6 PPRE (4 × […]) into the upstream of the luciferase coding sequence in pGL3-promoter vector (Promega, Madison, WI, USA). pCMVβGal was purchased from Clontech (Palo Alto, CA, USA). The mouse 3T3-L1 preadipocyte cell line, skeletal muscle C2C12 cell line, and macrophage RAW267.4 cell line and the human osteosarcoma U2OS cell line were obtained from the American Type Culture Collection (ATCC, Rockville, MD, USA). The human hepatoma SMMC-7721 cell line was obtained from the Cell Culture Center of Chinese Academy of Medical Sciences (Beijing, China). Cell lines were cultured in medium of DMEM (3T3-L1, C2C12, and SMMC-7721), RPMI 1640 (RAW267.4), or McCoy's 5A (U2OS), containing 10% fetal bovine serum (FBS), 50 μg/mL streptomycin, and 50 units/mL penicillin at 37°C in a humidified incubator with 5% CO2.
(§2) Total RNA was extracted from cells or tissues with an RNeasy minikit (Qiagen, Valencia, CA, USA). The first-strand cDNA was synthesized using the oligo(dT) primers, followed by using SuperScript II reverse transcriptase (Invitrogen) according to the manufacturer's instructions. The PCR amplifications were performed in 10 μL of reaction mixture volume containing 0.8 μL of cDNA, 10 mM Tris-HCl (pH 8.3), 50 mM KCl, 1.5 mM MgCl2, 0.1% Triton X-100, 0.2 mM deoxynucleotide triphosphates, 0.4 μM primers, and 0.25 U of Taq polymerase (TaKaRa Biotechnology Co., Ltd, China). Taq DNA polymerase was added to each tube after a treatment of 2 min at 94°C. This was followed by 22–30 cycles of denaturation (23 s at 94°C), annealing (20 s at 55°C), extension (30 s at 72°C), and a final extension step of 2 min. PCR products were analyzed by electrophoresis on a 1.5% agarose gel stained with ethidium bromide.
(§3) Figure 1 In vitro regulation of gene expression by chiglitazar. (a) Endogenous expression of individual PPAR subtypes in cell lines. […]. The expression change of referred genes induced by different compounds was normalized against internal control (36B4 or GAPDH) and then compared with vehicle control treatment. The data shown are averaged from 3 independent experiments.

RAW267.4 cells = assay: Gene expression by RT-PCR in RAW267.4 cells; assay type: cell-based, mouse; details: 48 h, 10 μM chiglitazar; for Expression of PPARα and/or PPARδ downstream gene SRA: 50 μM WY14643, 5 μM 2-Bro, compared with rosiglitazone 10 μM
Excerpt: as §1, §2, §3

C2C12 cells = assay: Gene expression by RT-PCR in C2C12 cells; assay type: cell-based, mouse; details: 48 h, 10 μM chiglitazar, 50 μM WY14643, 5 μM 2-Bro, compared with rosiglitazone 10 μM
Excerpt: as §1
Total RNA was extracted from cells or tissues with an RNeasy minikit (Qiagen, Valencia, CA, USA). The first-strand cDNA was synthesized using the oligo(dT) primers, followed by using SuperScript II reverse transcriptase (Invitrogen) according to the manufacturer's instructions. […] PCR products were analyzed by electrophoresis on a 1.5% agarose gel stained with ethidium bromide. […]

rats = system: rats; design: method as in earlier work; details: same length of treatment (6 months) ref 44, 45; cited from earlier work
3T3-L1 cells = assay: Gene expression by RT-PCR in 3T3-L1 cells; assay type: cell-based, mouse; details: 48 h, 10 μM rosiglitazone, 10 μM chiglitazar, vs vehicle
Excerpt: as §1, with “The human hepatoma SMMC-7721 cell line was obtained from the Cell Culture Center of Chinese Academy of Medical Sciences (Beijing, China). Cell lines were cultured in medium of DMEM (3T3-L1, C2C12, and SMMC-7721), RPMI 1640 (RAW267.4), or McCoy's 5A (U2OS), containing 10% fetal bovine serum (FBS), 50 μg/mL streptomycin, and 50 units/mL penicillin at 37°C in a humidified incubator with 5% CO2.” left out
Total RNA was extracted from cells or tissues with an RNeasy minikit (Qiagen, Valencia, CA, USA). […] PCR products were analyzed by electrophoresis on a 1.5% agarose gel stained with ethidium bromide. […]

KKAy mice = assay: Gene expression by RT-PCR in tissues of treated KKAy mice; assay type: in vivo, mouse; details: 12 days oral
Description: as §2
Male db/db mice (BKS.Cg-m +/+ LEPR^db) in 6-7 weeks were purchased from The Jackson Laboratory (Bar Harbor, ME, USA). Male KKAy and C57BL/6J mice in 8–10 weeks were obtained from the Institute of Animal Science, Chinese Academy of Medical Sciences and Peking Union Medical College (Beijing, China). Animals were randomly sorted into different treatment groups (8–10 per group). […]. Plasma glucose levels were examined at various time points by Accu-Chek Advantage II Glucose Strips (Roche Diagnostics, Basel, Switzerland) and measured by Accu-Chek Advantage (Roche Diagnostics). Animals were sacrificed 24 h after the last dosing and abdominal fat pad, liver, and skeletal muscle from KKAy mice and abdominal fat pad from db/db mice were taken for gene expression analysis.
Figure 3 In vivo regulation of gene expression by chiglitazar. […]. Equal amount of total RNA from each mouse in the same group was mixed and subjected to RT-PCR analysis for the indicated genes. […]. Total RNA was isolated from individual animal tissues and subjected to the RT-PCR analysis independently for the indicated genes.

[7] = 24 h treatment, luciferase reporter, hRXR cotransfected, ia: inactive at 10 μM
[8] = chiglitazar 20 mg kg^−1, rosiglitazone 5 mg kg^−1
[9] = max response compared with WY at 50 μM

## CCCCCCCCCCCCCCC(Br)C(=O)O (centres unmarked) [2-Bro, 2-bromohexadecanoic acid, reference compound]
PPARα [1]; [7]
  PPARα EC50: ia^2
PPARγ [2]
  EC50: 5.5 ± 1.7 µM
PPARγ [2]; SMMC-7721 cells, max response compared with Ros at 1 μM
  PPARγ % Max: 14%
PPARδ [3]
  EC50: 5.1 ± 0.9 µM
PPARδ [3]; SMMC-7721 cells, max response compared with 2-Bro at 10 μM
  PPARδ % Max: 100%
PPARα [4]; [7]
  PPARα EC50: ia
PPARγ [5]
  PPARγ EC50: ia
PPARδ [6]
  EC50: 9.2 ± 0.8 µM
PPARδ [6]; U2OS cells, max response compared with 2-Bro at 10 μM
  PPARδ % Max: 100%
SMMC-7721 cells
  Expression of LDL receptor (LDLR): significantly upregulated
RAW267.4 cells
  Expression of PPARα and/or PPARδ downstream gene SRA: more significantly upregulated
C2C12 cells
  Expression of PPARα and/or PPARδ downstream genes CPT-1a and CPT-1b: more significantly upregulated

## CCc1ccc(CCOc2ccc(CC3SC(=O)NC3=O)cc2)nc1 (centres unmarked) [Pio, pioglitazone]
rats
  Dose observed to induce heart weight increase: 4 mg/kg

## CN(CCOc1ccc(CC2SC(=O)NC2=O)cc1)c1ccccn1 (centres unmarked) [Ros, rosiglitazone, reference compound]
SMMC-7721 cells; vs vehicle
  Expression of PPARγ downstream genes AOX, LIPC and HSL: upregulated
SMMC-7721 cells
  Expression of LDL receptor (LDLR): downregulated
RAW267.4 cells; 10 μM rosiglitazone, vs vehicle
  Expression of PPARγ downstream gene CD36: upregulated
3T3-L1 cells
  Expression of PPARγ downstream genes SREBP1 and adiponectin: upregulated
KKAy mice; [8]
  Expression of ACADL, HSL, GLUT4 and PPARγ in liver and skeletal muscle: not affected
  Expression of genes involved in PPARγ-mediated insulin sensitization in adipose tissue: almost identically up-regulated
KKAy mice; rosiglitazone 5 mg kg^−1 vs chiglitazar 20 mg kg^−1
  Expression of Adiponectin and CD36 in liver and skeletal muscle: more upregulated
rats
  Dose observed to induce heart weight increase: 5 mg/kg

## Cc1cccc(Nc2cc(Cl)nc(SCC(=O)O)n2)c1C [WY, WY14643]
PPARα [1]; [9]
  PPARα % Max: 100%
PPARα [4]; [9]
  PPARα % Max: 100%
SMMC-7721 cells
  Expression of LDL receptor (LDLR): downregulated
RAW267.4 cells
  Expression of PPARα and/or PPARδ downstream gene SRA: more significantly upregulated
C2C12 cells
  Expression of PPARα and/or PPARδ downstream genes CPT-1a and CPT-1b: more significantly upregulated
